Where “and” joins values, the source holds several entries; their conditions need not be identical. Equal values may be shown once. Read-outs that look alike come from different tables or passages of the source. No end group written: not given here.
Experiments:
[1] = test system: Clostridium tetani; format: cell-based
[2] = test system: Clostridium perfringens; format: cell-based
[3] = test system: Bacteroides fragilis; assay: Bacteriostasis experiment on anaerobic bacterium, 96-well plate MIC; format: cell-based
[4] = test system: M. tuberculosis; assay: MIC test by the third party; format: cell-based, Mycobacterium tuberculosis
[5] = test system: Escherichia coli
[6] = test system: Staphylococcus aureus
[7] = test system: Methicillin-resistant Staphylococcus aureus (MRSA)
[8] = test system: methicillin-resistant coagulase-negative staphylococci (MRSCNS)
[9] = test system: methicillin-sensitive coagulase-negative staphylococci (MSSCNS)
[10] = test system: S. pneumoniae
[11] = test system: S. agalactiae
[12] = test system: Streptococcus hemolyticus / S. pyogenes (β-hemolytic streptococcus); conditions: for Minimum inhibitory concentration MIC: test by the third party
[13] = test system: E. faecium
[14] = test system: E. faecalis
[15] = test system: Enterococcus
[16] = test system: Neisseria meningitidis; conditions: N. meningitidis
[17] = test system: Neisseria gonorrhoeae; conditions: N. gonorrhoeae
[18] = test system: Shigella dysentery (dysentery bacilli)
[19] = test system: Salmonella typhimurium
[20] = test system: Klebsiella pneumoniae; conditions: K. pneumoniae
[21] = test system: K. oxytoca
[22] = test system: Citrobacter
[23] = test system: E. cloacae
[24] = test system: Serratia fonticola; conditions: S. fonticola
[25] = test system: Corynebacterium diphtheriae; conditions: C. diphtheriae
[26] = test system: Corynebacterium acnes; conditions: C. acnes
[27] = test system: Pseudomonas aeruginosa
[28] = test system: Acinetobacter baumannii; conditions: A. baumannii (clinically isolated strain, 2 strains in Table 3)
[29] = test system: Bordetella pertussis; conditions: B. pertussis
[30] = test system: Haemophilus influenza; conditions: H. influenzae
[31] = test system: Proteusbacillus vulgaris

## FIRIARLLRIF [Ctryamp, FIRIARLLRIF]
[1]
  Minimum inhibitory concentration MIC: 25 µg/mL
[2]
  Minimum inhibitory concentration MIC: 25 µg/mL
[3]
  Minimum inhibitory concentration MIC: 12.5 µg/mL
[4]
  Minimum inhibitory concentration MIC: 25 µg/mL
[5]; ATCC25922 (non-ESBLs-producing), test by the third party
  Minimum inhibitory concentration MIC: 4 µg/mL
[5]; ATCC35218 (ESBLs-producing), test by the third party
  Minimum inhibitory concentration MIC: 4 µg/mL
[5]; E. coli ATCC25922 (standard strain)
  Minimum inhibitory concentration MIC: 6.25 µg/mL
[5]; E. coli clinically isolated strain, 8 strains
  Minimum inhibitory concentration MIC: 6.25 to 12.5 µg/mL
[5]; ESBLs-producing E. coli, 10 strains, test by the third party
  Minimum inhibitory concentration MIC: 4 to 8 µg/mL
[5]; Escherichia coli, strain not specified (Table 8)
  Minimum inhibitory concentration MIC: 6.25 to 12.5 µg/mL and 6.25 µg/mL
[5]; at 6.25 μg/mL, Escherichia coli CCTCCAB94012
  inhibition rate: 100%
[5]; non-ESBLs-producing E. coli, 4 strains, test by the third party
  Minimum inhibitory concentration MIC: 4 to 8 µg/mL
[5]; standard Escherichia coli (Table 2)
  Minimum inhibitory concentration MIC: 12.5 µg/mL
[6]; S. aureus ATCC 29213, test by the third party
  Minimum inhibitory concentration MIC: 8 µg/mL
[6]; S. aureus clinically isolated strain, 17 strains
  Minimum inhibitory concentration MIC: 1.63 to 6.25 µg/mL
[6]; S. aureus standard strain ATCC25923
  Minimum inhibitory concentration MIC: 6.25 µg/mL
[6]; at 6.25 μg/mL, Staphylococcus aureus CCTCCAB94004
  inhibition rate: 100%
[6]; standard Staphylococcus aureus (Table 2)
  Minimum inhibitory concentration MIC: 6.25 µg/mL
[7]; MRSA, 5 strains
  Minimum inhibitory concentration MIC: 3.13 to 12.5 µg/mL
[7]; MRSA, 11 strains, test by the third party
  Minimum inhibitory concentration MIC: 4 to 8 µg/mL
[7]; Methicillin-resistant Staphylococcus aureus (Table 8)
  Minimum inhibitory concentration MIC: 6.25 µg/mL
[8]; 11 strains, test by the third party
  Minimum inhibitory concentration MIC: 4 µg/mL
[8]; stated jointly with MRSA, 4-8 = test results from the third party
  Minimum inhibitory concentration: 3.13 to 12.5 µg/mL and 4 to 8 µg/mL
[9]; MSSCNS, 5 strains, test by the third party
  Minimum inhibitory concentration MIC: 4 µg/mL
[9]; methicillin-sensitive coagulase-negative staphylococci
  MIC: 3.13 to 12.5 µg/mL
[10]
  Minimum inhibitory concentration MIC: 3.13 µg/mL
[11]
  Minimum inhibitory concentration MIC: 25 µg/mL
[12]; Erythromycin-resistant S. pyogenes, 11 strains
  Minimum inhibitory concentration MIC: 8 to 16 µg/mL
[12]; Erythromycin-sensitive S. pyogenes, 4 strains
  Minimum inhibitory concentration MIC: 16 µg/mL
[12]; Streptococcus ATCC 19615 (standard strain)
  Minimum inhibitory concentration MIC: 8 µg/mL
[12]; Streptococcus hemolyticus
  MIC: 8 to 16 µg/mL
[13]
  Minimum inhibitory concentration MIC: 25 µg/mL
[14]
  Minimum inhibitory concentration MIC: 50 µg/mL
[15]
  MIC: 6.25 µg/mL
[16]
  Minimum inhibitory concentration MIC: 6.25 µg/mL
[17]
  Minimum inhibitory concentration MIC: 6.25 µg/mL
[18]
  Minimum inhibitory concentration MIC: 6.25 µg/mL and 6.5 µg/mL
[19]
  Minimum inhibitory concentration MIC: 12.5 µg/mL
[20]
  Minimum inhibitory concentration MIC: 25 µg/mL
[21]
  Minimum inhibitory concentration MIC: 12.5 µg/mL
[22]
  Minimum inhibitory concentration MIC: 12.5 µg/mL
[23]
  Minimum inhibitory concentration MIC: 12.5 µg/mL
[24]
  Minimum inhibitory concentration MIC: 12.5 µg/mL
[25]
  Minimum inhibitory concentration MIC: 3.13 µg/mL
[26]
  Minimum inhibitory concentration MIC: 3.13 µg/mL
[27]; P. aeruginosa ATCC27853 (standard strain), test by the third party
  Minimum inhibitory concentration MIC: 8 µg/mL
[27]; P. aeruginosa IPM-R strain, 8 strains, test by the third party
  Minimum inhibitory concentration MIC: 8 to 16 µg/mL
[27]; P. aeruginosa IPM-S strain, 4 strains, test by the third party
  Minimum inhibitory concentration MIC: 8 to 16 µg/mL
[27]; Pseudomonas aeruginosa, strain not specified (Table 8)
  Minimum inhibitory concentration MIC: 8 µg/mL
[28]
  Minimum inhibitory concentration MIC: 12.5 µg/mL
[29]
  Minimum inhibitory concentration MIC: 3.13 µg/mL
[30]
  Minimum inhibitory concentration MIC: 3.13 µg/mL
[31]
  MIC: 6.25 µg/mL

Reference: US10654895B2, “Polypeptide, DNA molecule encoding the polypeptide, vector, preparation method and use” (WUHAN MORE BIOTECHNOLOGY CO., LTD., priority 2013, dated 2020)
